Measured values published in PubChem BioAssay (NCI).
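1) Cells in 96-well plates. 2) Compound, 48 h, 5 concentrations. 3) Linear interpolation between surrounding doses. 4) Unreached endpoint = highest concentration. Here, GI50 denotes the concentration required for 50% inhibition of growth. The concentration for full growth arrest is given as TGI.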

Columns and labels:
Assay in all cases: growth of human tumour cells (NCI), 48 h
[1] = tested on: HCT-116 colon
[2] = tested on: MDA-MB-435
[3] = tested on: SK-MEL-28 melanoma
[4] = tested on: OVCAR-8 ovarian
[5] = tested on: DU-145 prostate
[6] = tested on: RPMI-8226 leukemia
[7] = tested on: OVCAR-4 ovarian
[8] = tested on: MOLT-4 leukemia
[9] = tested on: HL-60(TB) leukemia
[10] = tested on: SN12C renal
[11] = tested on: HCC-2998 colon
[12] = tested on: MCF7 breast
[13] = tested on: HS 578T breast
[14] = tested on: NCI-H226 lung
[15] = tested on: UO-31 renal
[16] = tested on: ACHN renal
[17] = tested on: A498 renal
[18] = tested on: M14 melanoma
[19] = tested on: HOP-62 NSCLC
[20] = tested on: A549 NSCLC
[21] = tested on: BT-549 breast
[22] = tested on: OVCAR-5 ovarian
[23] = tested on: TK-10 renal
[24] = tested on: SW-620 colon
[25] = tested on: K-562 leukemia
[26] = tested on: 786-0 renal
[27] = tested on: UACC-257 melanoma
[28] = tested on: HCT-15 colon
[29] = tested on: IGROV1 ovarian

`Cc1cc(Nc2nc(-c3ccc(F)cc3)nc3ccccc23)n[nH]1` showed a GI50 [1] of 760 nM, a TGI [1] of 15.5 µM and a GI50 [2] of 1650 nM. It also gave a TGI [2] of 16.2 µM, a GI50 [3] of 8.46 µM and a TGI [3] of 21.7 µM. The GI50 [4] was 7.28 µM, the TGI [4] was 36.9 µM and the GI50 [5] was 6.44 µM. The TGI [5] was > 48.9 µM, the GI50 [6] was 9.22 µM and the TGI [6] was 39.1 µM. The GI50 [7] was 3.2 µM, the TGI [7] was 27.8 µM and the GI50 [8] was 10.1 µM. The TGI [8] was 35.1 µM, the GI50 [9] was 2780 nM and the TGI [9] was 34.8 µM. For the same molecule, the GI50 [10] was 3.1 µM, the TGI [10] was 25.2 µM and the GI50 [11] was 5.24 µM. For the same molecule, the TGI [11] was 25.4 µM, the GI50 [12] was 2790 nM and the TGI [12] was 18.8 µM. The GI50 [13] was 842 nM, the TGI [13] was 7.54 µM and the GI50 [14] was 3.36 µM. The TGI [14] was 18 µM, the GI50 [15] was 574 nM and the TGI [15] was 15 µM. The GI50 [16] was 818 nM, the TGI [16] was 39.5 µM and the GI50 [17] was 371 nM. The TGI [17] was 5.21 µM, the GI50 [18] was 748 nM and the TGI [18] was 19.4 µM. The GI50 [19] was 4.76 µM, the TGI [19] was 20.3 µM and the GI50 [20] was 1770 nM. For the same molecule, the TGI [20] was 18.1 µM, the GI50 [21] was 7.3 µM and the TGI [21] was 21.6 µM. It also gave a GI50 [22] of 10.1 µM, a TGI [22] of 34.5 µM and a GI50 [23] of 1250 nM. It also gave a TGI [23] of 33.4 µM, a GI50 [24] of 2100 nM and a TGI [24] of 15.7 µM. It also gave a GI50 [25] of 3.91 µM, a TGI [25] of 24.1 µM and a GI50 [26] of 1990 nM. The TGI [26] was 38.1 µM, the GI50 [27] was 10 µM and the TGI [27] was 22.7 µM. It also gave a GI50 [28] of 673 nM, a TGI [28] of 33.9 µM and a GI50 [29] of 983 nM.
